# From patent US20230103142A1, “SMALL MOLECULE REGULATORS OF NOTCH1 AND USES THEREOF” (THE PENN STATE RESEARCH FOUNDATION, priority 2020, published 2023)
# Residues, ends and D or L forms follow the SMILES beside them. *: point of attachment. Cbz = O=C(OCc1ccccc1)*
# Assays:
# ubiquitin in ALDH+ cells = experiment: ubiquitin expression; type: cell-based
# Description: Commercially available positive and negative controls were used for these experiments.
# TCCSUP cells [1] = experiment: MTT cell viability assay; type: cell-based
# Description: (§1) Cell culture and viability assay. […] Cell lines were maintained in Eagle's Minimum Essential Medium at 37° C. and 5% CO2. […] TCCSUP and HT1376 cells were treated with varying concentrations of ASR488 (0.2-12.5 μM) for 24, 48, and 72 h.
# HT1376 cells [2] = experiment: MTT cell viability assay; type: cell-based
# Description: as §1
# normal BCa cells = experiment: toxicity to normal cells; type: cell-based
# TCCSUP cells [3] = experiment: RNA-seq differential gene expression analysis; type: cell-based
# Excerpt: RNA isolation, cDNA library construction, and DNA sequencing. TCCSUP cells treated with vehicle (DMSO) or ASR488 were subjected to RNA isolation using TRIzol® (Invitrogen; Thermo Fisher Scientific, Inc., Waltham, Mass., USA) according to the manufacturer's protocol. Nano Photometer® spectrophotometer (Implen, Inc., Westlake Village, Calif., USA) was used to measure the RNA concentration and purity of the samples. A cDNA library was then constructed using an NEB Next® Ultra™ RNA Library Prep kit for Illumina® (New England Biolabs, Inc., Ipswich, Mass., USA) by Novogene Bioinformatics Technologies Co. Ltd. (Beijing, China) following the manufacturer's protocols. Subsequently, polymerase chain reaction (PCR) was, Universal PCR primers, and Index (X) Primer for double-stranded cDNA amplification. The PCR products generated for PCR performed using Phusion High Fidelity DNA polymerase were purified using the AMPure XP system, and Agilent Bioanalyzer 2100 system was used to analyze the library quality. The cDNA library was sequenced using an Illumina Hiseq 2000/2500 platform and 100 bp/50 bp single-end reads were generated.
# Data Analysis. Bioinformatics analysis was performed using a combination of programs including STAR, HTseq, Cufflink, and our wrapped scripts. Tophat program was used to parse the alignments and DESeq2/edgeR was utilized to ascertain differential expressions. To determine GO and KEGG enrichment Cluster Profiler was used.
# For DESeq2 with biological replicates: DESeq2 R package (2_1.6.3) was used to analyze differential expression between the ASR488 treated and control groups (two biological replicates per condition). The p-values obtained from the analysis were adjusted using the Benjamini and Hochberg's approach so that the false discovery rate (FDR) can be controlled. The genes having adjusted p-value <0.05 were assigned as differentially expressed.
# For edge R without biological replicates: EdgeR program package (3.16.5) was used to adjust the read counts for each sequenced library before differential gene expression analysis, through one scaling normalized factor. The p-values were adjusted using the Benjamini and Hochberg method. […] The Venn diagrams were prepared using the function Venn diagram in R based on the gene list for different groups.
# CPEB1 = CPEB1 (Homo sapiens, UniProt Q9BZB8); experiment: scanning fluorimetry with purified CPEB1 protein; type: binding
# CPEB1, sequence (Q9BZB8 whole entry): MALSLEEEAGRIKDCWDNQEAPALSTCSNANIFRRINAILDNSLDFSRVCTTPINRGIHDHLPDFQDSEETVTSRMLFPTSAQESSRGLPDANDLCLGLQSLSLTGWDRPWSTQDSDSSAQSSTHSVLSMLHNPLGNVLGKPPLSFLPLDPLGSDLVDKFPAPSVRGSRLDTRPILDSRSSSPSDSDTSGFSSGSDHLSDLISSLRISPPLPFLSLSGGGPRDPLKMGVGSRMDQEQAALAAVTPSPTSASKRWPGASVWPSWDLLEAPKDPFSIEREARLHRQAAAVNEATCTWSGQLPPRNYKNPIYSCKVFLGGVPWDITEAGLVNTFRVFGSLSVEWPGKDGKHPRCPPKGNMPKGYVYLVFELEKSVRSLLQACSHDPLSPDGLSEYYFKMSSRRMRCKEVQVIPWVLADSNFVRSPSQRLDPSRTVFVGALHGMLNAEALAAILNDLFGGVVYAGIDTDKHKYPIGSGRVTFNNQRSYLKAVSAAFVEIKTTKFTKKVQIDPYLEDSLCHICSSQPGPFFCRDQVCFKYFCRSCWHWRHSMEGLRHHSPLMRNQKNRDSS
# Excerpt: (FIG. 9B) ASR488 treatment induces p53 independent p27 upregulation in Bladder Cancer cells. (FIG. 9C) The result is GO/G1 cell cycle arrest in ASR488 treated Bladder Cancer Cells. (FIG. 9D) p27 upregulation is due to CPEB1 induction by overexpressing CPEB1 in TCCSUP cells.
# TCCSUP cells [4] = experiment: Annexin V-FITC/PI apoptosis flow cytometry; type: cell-based; conditions: 24 h treatment
# Description: (§2) Detection of apoptosis by flow cytometry and immunoblotting. Annexin V-fluorescein isothiocyanate (FITC) against propidium iodide (PI) assay (FITC Annexin V Apoptosis Detection Kit I, BD Pharminogen, San Diego, Calif., USA) was used for detecting apoptosis as described previously. Total protein extracts from TCCSUP cells were prepared with the Mammalian Protein Extraction Reagent (Thermo Scientific, Rockford, Ill., USA) according to the manufacturer's instructions. Western blotting was performed using specific antibodies against Cleaved PARP (Cat #5625), BAX (Cat #5023) (Cell signaling Technology), and β-actin (Santa Cruz Biotechnologies, Dallas, Tex., USA). The positive bands were detected using enhanced chemiluminescence.
# HT1376 cells [5] = experiment: Annexin V-FITC/PI apoptosis flow cytometry; type: cell-based; conditions: HT1376, 24 h treatment
# Description: as §2
# TCCSUP cells [6] = experiment: qRT-PCR of top upregulated genes; type: cell-based; conditions: vs vehicle (DMSO)
# Excerpt: The blue dots represent the genes that are without any significant diversity. […] The sum of the numbers in each large circle are the total number of genes in ASR488-treated or vehicle-treated TCCSUP cells, and the common genes among the samples are represented in the overlapping part.
# [7] = system: CPEB1 knockdown TCCSUP cells; experiment: cell death in CPEB1 siRNA knockdown cells; type: cell-based
# Excerpt: To analyze whether ASR488 treatment can induce p27 mediated cell death in CPEB1 knockdown bladder cancer cells, we knocked down CPEB1 with SiRNA in TCCSUP cells. (FIG. 11A) ASR488 treatment was unable to restore CPEB1 expression in CPEB1 knockdown cells. Moreover, P27 expression corresponded with CPEB1 expression pattern in the Knockdown cells.
# [8] = system: Notch 1 activation in MDA-MB-231 TNBC cells; experiment: Western blot of NICD and HES1; type: cell-based; conditions: vs vehicle treated controls
# MDA-MB-231 TNBC cells = experiment: cell viability assay; type: cell-based; conditions: 1/20th of IC50 of DOX alone
# Description: Synergistic effects of combinations were calculated via isobologram analysis.
compound,measurement,setting,value
"CC(C)C[C@@H](C=O)NC(=O)[C@H](CC(C)C)NC(=O)[C@H](CC(C)C)NC(=O)OCc1ccccc1 [MG-132, reference compound] (Cbz-Leu-Leu-Leu-aldehyde)",ubiquitin expression,ubiquitin in ALDH+ cells,higher level of ubiquitin
CC1=C(CO)C(=O)O[C@@H]([C@@H](C)[C@H]2CC[C@H]3[C@@H]4C[C@H]5O[C@]56[C@@H](OC(=O)c5cccs5)C=CC(=O)[C@]6(C)[C@H]4CC[C@]23C)C1 [ASR488],IC50,TCCSUP cells [1]; 24 h,800 nM
same,IC50,TCCSUP cells [1]; 48 h,480 nM
same,IC50,TCCSUP cells [1]; 72 h,450 nM
same,IC50,"HT1376 cells [2]; HT1376, 24 h",1280 nM
same,IC50,"HT1376 cells [2]; HT1376, 48 h",750 nM
same,IC50,"HT1376 cells [2]; HT1376, 72 h",850 nM
same,toxicity to normal cells,normal BCa cells,non-toxic
same,Log2 (fold-change) ACTG2,"TCCSUP cells [3]; gene ACTG2, treated TCCSUP cells",3.0293
same,Log2 (fold-change) BBOX1,"TCCSUP cells [3]; gene BBOX1, treated TCCSUP cells",−2.2384
same,Log2 (fold-change) CMPK2,"TCCSUP cells [3]; gene CMPK2, treated TCCSUP cells",−1.8470
same,Log2 (fold-change) CPEB1,"TCCSUP cells [3]; gene CPEB1, treated TCCSUP cells",6.3347
same,Log2 (fold-change) CYP4F11,"TCCSUP cells [3]; gene CYP4F11, treated TCCSUP cells",8.3568
same,Log2 (fold-change) DDX60,"TCCSUP cells [3]; gene DDX60, treated TCCSUP cells",−2.5069
same,Log2 (fold-change) FOS,"TCCSUP cells [3]; gene FOS, treated TCCSUP cells",−1.9465
same,Log2 (fold-change) GBP4,"TCCSUP cells [3]; gene GBP4, treated TCCSUP cells",−2.2704
same,Log2 (fold-change) GNGT2,"TCCSUP cells [3]; gene GNGT2, treated TCCSUP cells",2.5802
same,Log2 (fold-change) HSPA6,"TCCSUP cells [3]; gene HSPA6, treated TCCSUP cells",3.5985
same,Log2 (fold-change) IFI44L,"TCCSUP cells [3]; gene IFI44L, treated TCCSUP cells",−1.9791
same,Log2 (fold-change) IFIT2,"TCCSUP cells [3]; gene IFIT2, treated TCCSUP cells",−1.8473
same,Log2 (fold-change) IL11,"TCCSUP cells [3]; gene IL11, treated TCCSUP cells",2.9265
same,Log2 (fold-change) MAP1A,"TCCSUP cells [3]; gene MAP1A, treated TCCSUP cells",2.1205
same,Log2 (fold-change) OASL,"TCCSUP cells [3]; gene OASL, treated TCCSUP cells",−1.9737
same,Log2 (fold-change) RSAD2,"TCCSUP cells [3]; gene RSAD2, treated TCCSUP cells",−2.2235
same,Log2 (fold-change) SFN,"TCCSUP cells [3]; gene SFN, treated TCCSUP cells",3.7239
same,Log2 (fold-change) SPHK1,"TCCSUP cells [3]; gene SPHK1, treated TCCSUP cells",4.6389
same,Log2 (fold-change) STEAP4,"TCCSUP cells [3]; gene STEAP4, treated TCCSUP cells",−1.8141
same,Log2 (fold-change) TAGLN,"TCCSUP cells [3]; gene TAGLN, treated TCCSUP cells",2.3661
same,change of Tm of bound CPEB1,CPEB1,9 °C
same,apoptosis,TCCSUP cells [4],30.5%
same,apoptosis,HT1376 cells [5],23.2%
same,CPEB1 upregulation by qRT-PCR,TCCSUP cells [6],36 fold
same,CYP4F11 upregulation by qRT-PCR,TCCSUP cells [6],15.8 fold
same,IL11 upregulation by qRT-PCR,TCCSUP cells [6],30 fold
same,SFN upregulation by qRT-PCR,TCCSUP cells [6],20.12 fold
same,cell death in CPEB1 knockdown cells,[7],did not induced cell death
"COc1cccc2c1C(=O)c1c(O)c3c(c(O)c1C2=O)C[C@@](O)(C(=O)CO)C[C@@H]3O[C@H]1C[C@H](N)[C@H](O)[C@H](C)O1 [DOX, Doxorubicin, reference compound]",Notch 1 activation (NICD and HES 1 levels),[8],induction of Notch 1 activation
same,growth inhibition alone,MDA-MB-231 TNBC cells,did not inhibit the growth
